Values quoted from earlier work as cited in patent US20230049822A1, “COMPOSITIONS COMPRISING NICLOSAMIDE FOR USE IN TREATING CONDITIONS ASSOCIATED WITH AN ABNORMAL INFLAMMATORY RESPONSE” (First Wave Bio, Inc., priority 2020, published 2023).
Where a name gives a salt, the structure may show the parent alone.

Columns and labels:
murine models of IBD = settings: see WO 2017/040864
[1] = test system: pathogenic T cells isolated from IBD patients; settings: see WO 2017/040864

| solubility in acetone | solubility in ether, ethanol and chloroform | water solubility (at 20° C.) [µg/mL] | dissolves in distilled water (distilled water, 20° C.) [mg/L] | Compound | efficacy in murine models of IBD (murine models of IBD) | killing of pathogenic T cells [1] |
| --- | --- | --- | --- | --- | --- | --- |
| soluble | sparingly soluble | 5 to 8 |  | O=C(Nc1ccc([N+](=O)[O-])cc1Cl)c1cc(Cl)ccc1O [Niclosamide, 5-chloro-N-(2-chloro-4-nitrophenyl)-2-hydroxybenzamide] | effective | kills pathogenic T cells |
|  |  |  | 180 to 280 | O=C(Nc1ccc([N+](=O)[O-])cc1Cl)c1cc(Cl)ccc1O [ethanolamine salt, 5-chloro-N-(2-chloro-4-nitrophenyl)-2-hydroxybenzamide with 2-aminoethanol (1:1)] |  |  |
